Test results taken from paper PMC9699600, “Characterization of a Family of Scorpion Toxins Modulating Ca^2+-Activated Cl^− Current in Vascular Myocytes” (Toxins, 2022).

Assays:
[1] = target: T1, Ca2+-activated Cl− current (TMEM16A/Ano1) in rat portal vein myocytes (Rattus norvegicus, UniProt A0A8I6GL36); assay: Ca2+-activated Cl− current evoked by caffeine, whole-cell patch clamp; type: cell-based; conditions: 1 µM external application, 10 mM caffeine, holding potential −50 mV
T1 construct: Isolated myocytes from rat portal veins were obtained by enzymatic dispersion; endogenous in cells; host or cells: freshly dissociated rat portal vein smooth muscle cells (short-term primary culture, used within 24 h)
Procedure: In rat portal vein myocytes, at a holding potential of −50 mV, the external application of 10 mM caffeine induces a transient current depending on an increase in cytoplasmic Ca^2+ concentration, this current was characterized as Cl^− current [9] in the used experimental conditions. The amplitude of the Ca^2+-activated Cl^− current in our setup was 190 ± 20 pA (n = 101).
Isolated myocytes from rat portal veins were obtained by enzymatic dispersion, as described previously (Morel et al. 1996).
Voltage-clamp and membrane current recordings were made with a standard patch-clamp technique using a List EPC-7 patch-clamp amplifier (Darmstadt-Eberstadt, Germany). Patch pipettes had resistances of 3–4 MΩ. When [Ca^2+]i measurements were carried out simultaneously, Indo-1 (50 µM) was added to the pipette solution in the whole-cell recording mode and [Ca^2+]i was estimated from the 405/480 nm fluorescence ratio, using a calibration determined within cells, as previously described [36]. Patch-clamp experiments were carried out at 30 ± 1 °C. […]
The pooled data of n experiments are given as mean ± standard error. […] Inhibition-response curves were analyzed by a nonlinear least-squares fitting program according to models involving one or two binding sites (Graphpad-Prism software).

[2] = test system: Ca2+-activated and voltage-activated K+ currents; assay: Ca2+-activated and voltage-activated K+ currents, patch clamp; type: cell-based, rat; conditions: 100 nM, sequential application
Procedure: For K^+ current recording, the patch-clamp pipette contained 130 mM KCl and the external solution contained 5.6 mM KCl. Ca^2+-activated and voltage-activated K^+ currents were elicited by depolarizing pulses from −80 to 0 mV and Ca^2+-activated K^+ currents were activated by the opening of Ca^2+ channel during the depolarization step.
Voltage-clamp and membrane current recordings were made with a standard patch-clamp technique using a List EPC-7 patch-clamp amplifier (Darmstadt-Eberstadt, Germany). Patch pipettes had resistances of 3–4 MΩ. […] Patch-clamp experiments were carried out at 30 ± 1 °C.
The normal physiological solution contained (in mM): NaCl 130, KCl 5.6, MgCl2 1, CaCl2 2, glucose 11 and HEPES 10, pH 7.4 with NaOH. The basic pipette solution contained (in mM) CsCl 130, HEPES 10 and pH 7.3 with NaOH (CsCl was replaced by KCl for potassium current measurements). […] Lqh peptides, chlorotoxin and other toxins were added in a bath solution.

T1 sequence (A0A8I6GL36 1-990): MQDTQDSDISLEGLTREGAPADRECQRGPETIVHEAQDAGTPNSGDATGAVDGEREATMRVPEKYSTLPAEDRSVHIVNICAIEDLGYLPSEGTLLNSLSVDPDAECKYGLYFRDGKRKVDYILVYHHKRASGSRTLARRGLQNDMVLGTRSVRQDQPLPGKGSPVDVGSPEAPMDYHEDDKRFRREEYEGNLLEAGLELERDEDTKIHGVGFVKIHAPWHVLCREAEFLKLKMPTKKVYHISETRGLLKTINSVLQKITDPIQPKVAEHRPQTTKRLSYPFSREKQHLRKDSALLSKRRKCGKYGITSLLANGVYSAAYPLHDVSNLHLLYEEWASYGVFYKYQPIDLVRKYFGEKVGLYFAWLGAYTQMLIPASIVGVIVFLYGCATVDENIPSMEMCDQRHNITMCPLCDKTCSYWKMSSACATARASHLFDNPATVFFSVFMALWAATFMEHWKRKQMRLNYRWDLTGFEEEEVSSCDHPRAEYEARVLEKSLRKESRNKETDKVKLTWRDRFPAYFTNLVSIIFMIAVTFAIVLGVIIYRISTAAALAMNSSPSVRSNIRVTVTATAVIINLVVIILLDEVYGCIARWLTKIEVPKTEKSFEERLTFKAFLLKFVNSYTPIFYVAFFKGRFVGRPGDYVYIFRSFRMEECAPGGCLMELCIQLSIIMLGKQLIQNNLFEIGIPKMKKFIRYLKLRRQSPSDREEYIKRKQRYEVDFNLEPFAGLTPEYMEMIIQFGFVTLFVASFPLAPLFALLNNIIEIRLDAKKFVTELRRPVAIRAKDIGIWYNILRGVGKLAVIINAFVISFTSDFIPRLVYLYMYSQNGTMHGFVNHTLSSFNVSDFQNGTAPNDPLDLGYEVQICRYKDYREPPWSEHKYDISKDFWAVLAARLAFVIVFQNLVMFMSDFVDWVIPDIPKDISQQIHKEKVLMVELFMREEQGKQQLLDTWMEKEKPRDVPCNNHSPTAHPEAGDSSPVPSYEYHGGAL

## chlorotoxin
[1]
  inhibition of the Ca2+-activated Cl− current at 1 µM: 36 ± 9%

## charybdotoxin
[2]
  effect on K+ currents (confirmation of both types of K+ currents): inhibition

## scyllatoxin (AFCNLRMCQLSCRSLGLLGKCIGDKCECVKH; UniProt P16341 1-31, looked up) [K+ channel toxin from Latoxan]
[2]
  effect on K+ currents (confirmation of both types of K+ currents): inhibition
